Results as given in PubChem BioAssay (NCI).
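All cell lines were grown in 96-well plates and treated with compound for 48 hours. TGI is the concentration that stops growth completely.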

Columns and labels:
Assay in all cases: inhibition of tumour cell growth, NCI panel, 48 h
CAKI-1 renal = test system: CAKI-1 renal
786-0 renal = test system: 786-0 renal
SK-MEL-2 melanoma = test system: SK-MEL-2 melanoma
MALME-3M melanoma = test system: MALME-3M melanoma
NCI-H522 lung = test system: NCI-H522 lung
NCI-H226 lung = test system: NCI-H226 lung
HCT-116 colon = test system: HCT-116 colon
RXF 393 renal = test system: RXF 393 renal
NCI/ADR-RES ovarian = test system: NCI/ADR-RES ovarian
RPMI-8226 leukemia = test system: RPMI-8226 leukemia
MDA-N = test system: MDA-N

SMILES	TGI (CAKI-1 renal)	TGI (786-0 renal)	TGI (SK-MEL-2 melanoma)	TGI (MALME-3M melanoma)	TGI (NCI-H522 lung)	TGI (NCI-H226 lung)	TGI (HCT-116 colon)	TGI (RXF 393 renal)	TGI (NCI/ADR-RES ovarian)	TGI (RPMI-8226 leukemia)	TGI (MDA-N)
COC(=O)c1c(C)nc2c1cc(O)c1[nH]c(C)c(C)nc12	> 100 µM	> 100 µM	> 100 µM	> 100 µM	> 100 µM	> 100 µM	> 100 µM	> 100 µM	> 100 µM	> 100 µM	> 100 µM
Cc1ccnc(NS(=O)(=O)c2ccc(N=[N+]=[N-])cc2)n1	> 100 µM	> 100 µM	> 100 µM	> 100 µM	> 100 µM	> 100 µM	> 100 µM	> 100 µM	> 100 µM	> 100 µM	> 100 µM
N#CC(NCc1cccc(CNC(C#N)c2ccccc2)c1)c1ccccc1 (configuration not stated)	> 100 µM	> 100 µM	> 100 µM	65.9 µM	> 100 µM	> 100 µM	56.4 µM	> 100 µM	> 100 µM	65.4 µM	> 100 µM
O=[N+]([O-])c1ccc2[nH]nc(OCc3ccccc3Cl)c2c1	> 100 µM	59.4 µM	90.6 µM	> 100 µM	72.7 µM	> 100 µM	74.7 µM	48.2 µM	> 100 µM	> 100 µM	> 100 µM
CC1(C(=O)O)CCC2(C)CCC3(C)C(=CC(=O)C4C5(C)CCC(O)C(C)(C)C5CCC43C)C2C1 (configuration not stated)	> 100 µM	> 100 µM	92.4 µM	> 100 µM	50.1 µM	> 100 µM	63 µM	83 µM	> 100 µM		> 100 µM
NC1(c2cc3ccccc3s2)CCCC1	> 100 µM	> 100 µM	> 100 µM	> 100 µM	> 100 µM	> 100 µM	> 100 µM	> 100 µM	> 100 µM	34.4 µM	> 100 µM
Cc1ccccc1C(=N)c1ccccc1Cc1cccc2ccccc12	> 100 µM	41 µM	35.1 µM	27.3 µM	34.6 µM	45 µM	46.9 µM	20.3 µM	88.6 µM	33.3 µM	65.7 µM
O=c1[nH]c(=S)[nH]c2c1C(c1ccc([N+](=O)[O-])cc1)c1c([nH]c(=S)[nH]c1=O)O2	> 100 µM	> 100 µM	> 100 µM		> 100 µM	> 100 µM	> 100 µM	> 100 µM	> 100 µM	> 100 µM	> 100 µM
CCOC(=O)N1CCN(Cc2cc(=O)n3ccc(C)cc3n2)CC1	> 100 µM	> 100 µM	> 100 µM	> 100 µM	> 100 µM	> 100 µM	> 100 µM	> 100 µM	> 100 µM	> 100 µM	> 100 µM
COc1ccc(-c2[nH]c3c4c(nc5c(c24)C(=O)CC(C)(C)C5)CC(C)(C)C3)cc1	> 100 µM	> 100 µM	> 100 µM	> 100 µM	> 100 µM	> 100 µM	> 100 µM	> 100 µM	> 100 µM		> 100 µM
